Measured values from paper PMC3713777 (Bioorganic & medicinal chemistry, 2010).

Key:
SERT = SERT binding, inhibition of [3H]paroxetine; conditions: ratio of Ki values taken from reference 21
NET = conditions: read-out: NET (Ki); value taken from the literature; cited from earlier work
[1] = biological target: serotonin transporter (SERT) (Rattus norvegicus, UniProt P31652); experiment: [3H]citalopram binding assay; conditions: ratio of Ki values measured in this paper
Chain of serotonin transporter (SERT) (P31652 whole entry): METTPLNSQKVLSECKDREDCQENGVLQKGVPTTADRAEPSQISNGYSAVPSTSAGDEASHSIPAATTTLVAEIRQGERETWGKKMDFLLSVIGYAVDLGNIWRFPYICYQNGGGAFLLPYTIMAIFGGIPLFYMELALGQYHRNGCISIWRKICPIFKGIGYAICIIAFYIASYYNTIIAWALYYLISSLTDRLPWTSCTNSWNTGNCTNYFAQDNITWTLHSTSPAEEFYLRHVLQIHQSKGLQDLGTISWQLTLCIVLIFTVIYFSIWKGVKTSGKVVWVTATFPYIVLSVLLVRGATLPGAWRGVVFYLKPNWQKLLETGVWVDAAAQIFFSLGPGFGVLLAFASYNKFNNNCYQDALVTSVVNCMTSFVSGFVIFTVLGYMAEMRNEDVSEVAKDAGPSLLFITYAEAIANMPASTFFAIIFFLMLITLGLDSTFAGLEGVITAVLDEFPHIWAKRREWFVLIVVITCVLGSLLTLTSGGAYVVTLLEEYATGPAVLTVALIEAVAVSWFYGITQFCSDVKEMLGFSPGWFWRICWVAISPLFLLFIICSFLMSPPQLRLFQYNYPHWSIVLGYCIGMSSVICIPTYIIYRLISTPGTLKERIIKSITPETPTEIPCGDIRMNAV

CCOC(=O)C1(c2ccc(Cl)c(Cl)c2)CCN(C)CC1.Cl [Compound 2a]
NET/SERT (SERT): 4,000 | Ki (NET): 74.5 µM

CCOC(=O)C1(c2ccc3ccccc3c2)CCN(C)CC1.Cl [Compound 2d]
NET/SERT (SERT): 9,900

O=C(O)C(=O)O.O=C(OCc1ccc(Cl)c(Cl)c1)C1(c2ccc(I)cc2)CCNCC1 [Compound 14c, 3,4-Dichlorobenzyl 4-(4-iodophenyl) piperidine-4-carboxylate]
NET/SERT [1]: 1,000

Cl.O=C(OCc1ccccc1)C1(c2ccc(Cl)c(Cl)c2)CCNCC1 [Compound 12a, Benzyl 4-(3,4-dichlorophenyl) piperidine-4-carboxylate]
DAT/SERT [1]: 100

CCOC(=O)C1(c2ccc(I)cc2)CCN(C)CC1.Cl [Compound 2c]
NET/SERT (SERT): 25,000

CCOC(=O)C1(c2ccc(I)cc2)CCNCC1.Cl [Compound 4c, Ethyl 4-(4-iodophenyl)-piperidine-4-carboxylate]
DAT/SERT [1]: 1,400

CN1CCC(C(=O)OCc2ccc(Cl)c(Cl)c2)(c2ccc(Cl)c(Cl)c2)CC1.Cl [Compound 8d, 3,4-Dichlorobenzyl 4-(3,4-dichlorophenyl)-1-methylpiperidine-4-carboxylate]
DAT/SERT [1]: 1,200
